The values below are quoted from earlier work in patent US20070031339A1, “Contrast agents” (priority 2003, published 2007).

The conditions of this data set: aqueous solution at 350 mg iodine/ml, 37° C.

Turning to `C[C@H](O)C(=O)Nc1c(I)c(C(=O)NC(CO)CO)c(I)c(C(=O)NC(CO)CO)c1I` [lopamidol], the Viscosity is 7.6 mPas.
